Read-outs that look alike come from different tables or passages of the source.
Test system: M. mycetomatis genome strain MM55
Experiment: CLSI M38-A2 based in vitro susceptibility screening (XTT or resazurin), growth at fixed concentration
Type: cell-based, Madurella mycetomatis
Conditions: Madurella mycetomatis; for Percent fungal survival at 100 µM: replicate 2, read-out: Percentage survival at 100um, 100 uM A (second replicate column)
[1] = 25 uM, mean, read-out: Percentage survival at 25um, 25 uM mean
[2] = 25 uM, replicate A, read-out: Percentage survival at 25um, 25 um A
[3] = 25 uM, replicate B, read-out: Percentage survival at 25um, 25 uM B
[4] = 25 uM, replicate C, read-out: Percentage survival at 25um, 25 uM C
[5] = mean, read-out: Percentage survival at 100um, 100 uM mean
[6] = replicate (first column), read-out: Percentage survival at 100um, 100 uM A
[7] = replicate (second column), read-out: Percentage survival at 100um, 100 uM A
[8] = replicate (third column), read-out: Percentage survival at 100um, 100 uM A
[9] = 25 uM, mean of replicates, MM55, read-out: Percentage survival at 25um, 25 uM mean
[10] = 25 uM, replicate A, MM55, read-out: Percentage survival at 25um, 25 um A
[11] = 25 uM, replicate B, MM55, read-out: Percentage survival at 25um, 25 uM B
[12] = 25 uM, replicate C, MM55, read-out: Percentage survival at 25um, 25 uM C
[13] = mean of replicates, MM55, read-out: Percentage survival at 100um, 100 uM mean
[14] = replicate 1, MM55, read-out: Percentage survival at 100um, 100 uM A
[15] = replicate 2, MM55, read-out: Percentage survival at 100um, 100 uM A
[16] = replicate 3, MM55, read-out: Percentage survival at 100um, 100 uM A
[17] = 25 uM, mean of three replicates, read-out: Percentage survival at 25um, 25 uM mean
[18] = mean of three replicates, read-out: Percentage survival at 100um, 100 uM mean
[19] = replicate 1, read-out: Percentage survival at 100um, 100 uM A (first replicate column)
[20] = replicate 3, read-out: Percentage survival at 100um, 100 uM A (third replicate column)

| SMILES | activity at 25 µM [2] | activity at 25 µM [3] | activity at 25 µM [4] | activity at 25 µM [9] | activity at 25 µM [10] | activity at 25 µM [11] | activity at 25 µM [12] | activity at 100 µM [13] | activity at 100 µM [14] | activity at 100 µM [15] | activity at 100 µM [16] | also measured |
| --- | --- | --- | --- | --- | --- | --- | --- | --- | --- | --- | --- | --- |
| O=C(NC(=O)N1CCCc2ccccc21)c1cccc(Cl)c1 [MMV1782351] | 96.8% | 101% | 78.3% |  |  |  |  |  |  |  |  | activity at 25 µM [1]: 92%; activity at 100 µM [5]: 75.7%; activity at 100 µM [6]: 73.9%; activity at 100 µM [7]: 74.5%; activity at 100 µM [8]: 78.6% |
| O=C(O)COc1cccc2c1CC[C@](O)(COC(=O)N(c1ccccc1)c1ccccc1)C2 [MMV1782352] |  |  |  | 89.4% | 92.5% | 96.3% | 79.5% | 88.8% | 91.1% | 97.6% | 77.7% |  |
| CC(C)(C)NC(=O)[C@@H]1CN(Cc2cnc3occc3c2)CCN1C[C@@H](O)C[C@@H](Cc1ccccc1)C(=O)N[C@H]1c2ccccc2C[C@H]1O [MMV1782353] |  |  |  | 97.1% | 103% | 101% | 87.6% | 86.3% | 97% | 84.7% | 77.2% |  |
| Nc1nc2c(Cc3cccnc3)c[nH]c2c(=O)[nH]1 [MMV1782355] |  |  |  |  | 97.7% |  |  | 88.4% | 88.7% | 105% | 71.4% | activity at 25 µM (read-out: Percentage survival at 25um, 25 uM B): 95.7%; activity at 25 µM (read-out: Percentage survival at 25um, 25 uM C): 78.5%; activity at 25 µM (read-out: Percentage survival at 25um, 25 uM mean): 90.6% |
| CN(O)C(=O)c1cc2c(CN3CCC[C@H]3C(N)=O)cn(Cc3ccc(F)cc3)c2cn1 [MMV1782386] |  |  |  | 91.7% | 95% | 96.1% | 84% | 86% | 87.4% | 91.4% | 79.3% |  |
| CNc1nc(=O)[nH]cc1F [MMV1782388] | 88.9% | 76.2% | 78.1% |  |  |  |  |  |  |  |  | activity at 25 µM [1]: 81.1%; activity at 100 µM [5]: 93.4%; activity at 100 µM [6]: 99.3%; activity at 100 µM [7]: 85.3%; activity at 100 µM [8]: 95.6% |
| Cc1cc(C)n(O)c(=O)c1 [MMV1782389] | 87.4% | 82.9% | 74.1% |  |  |  |  |  |  |  |  | activity at 25 µM [1]: 81.5%; activity at 100 µM [5]: 81.6%; activity at 100 µM [6]: 67.6%; activity at 100 µM [7]: 78.2%; activity at 100 µM [8]: 99.1% |
| Cc1cc(C)n2nc(C(=O)NS(=O)(=O)c3c(C)cccc3OC(F)(F)F)nc2n1 [MMV1782402] | 98.2% | 98.8% | 91.3% |  |  |  |  |  |  |  |  | activity at 25 µM [17]: 96.1%; activity at 100 µM [18]: 91.2%; activity at 100 µM [19]: 99%; Percent fungal survival at 100 µM: 92.6%; activity at 100 µM [20]: 82% |
| CCNC(=O)Nc1cn2c(-c3ncc(CC)cn3)cc(-c3cccnc3)cc2n1 [MMV1782403] | 109% | 132% | 85.2% |  |  |  |  |  |  |  |  | activity at 25 µM [17]: 109%; activity at 100 µM [18]: 84.3%; activity at 100 µM [19]: 77.2%; Percent fungal survival at 100 µM: 79.4%; activity at 100 µM [20]: 96.3% |
| O=S(=O)(NCB(O)O)c1ccc(-c2nnn[nH]2)cc1C(F)(F)F [MMV1782411] | 61.4% | 112% | 78.7% |  |  |  |  |  |  |  |  | activity at 25 µM [17]: 83.9%; activity at 100 µM [18]: 88.5%; activity at 100 µM [19]: 91.5%; Percent fungal survival at 100 µM: 83.7%; activity at 100 µM [20]: 90.2% |
| NC(=O)C(c1ccccc1)(c1ccccc1)[C@H]1CCCN(CCc2ccc3c(c2)CCO3)C1 [MMV1782412] |  |  |  | 101% | 130% | 101% | 70.7% | 68.7% | 67.1% | 68% | 71% |  |

— paper PMC8815882, “Screening the pandemic response box identified benzimidazole carbamates, Olorofim and ravuconazole as promising drug candidates for the treatment of eumycetoma” (PLoS Neglected Tropical Diseases, 2022)
